From a compilation of properties of binary mixtures (doi:10.1016/j.jct.2017.01.014)

Assay: xn = mol fraction of the nth substance listed
Settings: 100 kPa

CCCC[n+]1ccn(C)c1.O=S(=O)([N-]S(=O)(=O)C(F)(F)F)C(F)(F)F + C=CN1CCCC1=O
x2 = 0
Settings	speed of sound [m/s]
298.15 K	1227.9
303.15 K	1216.8
308.15 K	1205.8
313.15 K	1195
318.15 K	1184.2
323.15 K	1173.6

C=CN1CCCC1=O + CCCC[n+]1ccn(C)c1.O=S(=O)([N-]S(=O)(=O)C(F)(F)F)C(F)(F)F
speed of sound [m/s]
Settings	x1 = 0.1377	x1 = 0.2099	x1 = 0.3148	x1 = 0.4117	x1 = 0.5061	x1 = 0.6078	x1 = 0.7032	x1 = 0.79	x1 = 0.8989	x1 = 1
298.15 K	1241.2	1249.4	1263	1278.3	1296.5	1321.4	1350.7	1384.6	1442.2	–
303.15 K	1229.8	1237.8	1251.1	1266.1	1283.9	1308.1	1336.6	1369.6	1425.6	1502.5
308.15 K	1218.5	–	–	1253.8	1271.2	1294.7	1322.7	1354.8	1409.1	1483.7
313.15 K	1207.3	–	1227.5	1241.7	–	1281.5	1308.7	1340	1392.8	1465
318.15 K	–	1203.6	–	1229.7	1246.1	1268.4	1294.9	1325.3	1376.5	–
323.15 K	1185.3	–	–	1217.8	1233.8	1255.4	1281.1	1310.5	1360.3	1428.1
